Like-named read-outs stand apart in the source and are kept apart here.
Key:
[1] = Chemical stability by RP-nano-LC at 37 °C; assay type: physicochemical; settings: 72 h, 100 µg/mL; for Chemical stability, basic conditions: 0.1 mM sodium hydroxide solution pH 9, 37 °C; for Chemical stability, acidic conditions: 10 mM hydrochloric acid buffer pH 2.0, 37 °C
Description: The results were compared with corresponding sulfonamides 2b–c and 2j. […] Advantages including low consumption of mobile and stationary phases and minimal sample volumes make this analytical tool more cost-effective and eco-friendlier with respect to the conventional HPLC. In addition, the reduction in particle diameter and the use of short chromatographic capillary column allow rapid analyses in isocratic elution mode.
Due to the low solubility of some compounds in pure water, the study was performed in an aqueous solution containing ACN/H2O as mobile phase. These conditions led to the chromatographic separation of each compound within 6 min. […] The analyses were performed with a nano-LC apparatus at appropriate intervals for 72 h, maintaining the prepared samples at a temperature of 37 °C.
Detection wavelength was set at 206 nm, and data were collected using ClarityTM Advanced Chromatography Software (Data Apex Ltd., Prague, Czech Republic).
To reduce the flow rate from µ- to nL/min, the HPLC pump delivering MeOH continuously and the injector were connected to a passive split-flow system. For this purpose, both the HPLC pump and injection valve were joined to a stainless-steel T-piece (Vici, Valco, Houston, TX, USA) by means of 500 µm id stainless steel tubes with lengths of 50 and 5 cm, respectively. The third entrance of the T-piece was connected to the MeOH reservoir of the pump through a fused silica capillary (50 µm id × 50 cm), achieving continuous recycling of the organic solvent. To minimize the dead volume and consequently reduce the band broadening effect, the capillary column was directly inserted into the modified injector, which was used for both sample loading and mobile phase reservoir. Samples and mobile phases were introduced into the capillary column through the injection valve by filling the loop with the sample solutions, switching the valve for the appropriate time, and then flushing the loop with the mobile phase. The analysis started immediately after positioning the injector device in the injection mode. […] In the optimized conditions, the flow rate of the column was about 450 nL/min. Nano-LC experiments were performed in uncoated fused silica capillaries (100 μm internal diameter) from Composite Metal Services, Hallow, UK), packed in our laboratory following the slurry packing procedure as described previously. The capillary column was packed with ChromSpher C18, 3 μm particle size (Varian, Palo Alto, CA, USA) for 15 cm.
Chromatographic conditions and standards preparation were as follows: the nano-LC analyses were performed in the capillary column employing as mobile phase a mixture of ACN/H2O ([…]) containing a 10 mM sodium hydrocarbonate buffer, pH 8.5. […]

MCF7 cells [2] = assay: Hematoxylin/eosin staining; assay type: cell-based, human; settings: MCF7, 50 µM, 72 h, vs DMSO
Protocol: The effectiveness on MCF7 cells of compound 1c over the other compounds is confirmed by the hematoxylin/eosin staining (H&E) performed after 72 h of treatment at 50 µM. […] At a higher magnification (panels C and D), MCF7 cells show chromatin condensation (green arrows), as a typical sign of the initiation of cell death.
MCF7 cells were seeded (7 × 10^4 cells/well) in well glasses (Millicell® EZ slide, Merck Millipore, Burlington, MA, USA). After 24 h from seeding, cells were exposed to compound 1c at 50 µM for 72 h. Next, supernatants were removed, and cells were washed twice with PBS with calcium and magnesium (Euro Clone, Milan, Italy). MCF7 cells were fixed in the presence of p-formaldehyde 4% and stained with hematoxylin/eosin as reported elsewhere.

human aromatase = target: T1, human aromatase (Homo sapiens, UniProt P11511); assay: Aromatase inhibition, fluorimetric assay kit (Aromatase-CYP19A Inhibitor Screening kit, BioVision); assay type: biochemical; settings: for IC50: tested at concentrations from 0.01 to 100 μM, mean of triplicate determinations
T1 construct: purchased BioVision, Milpitas, CA, USA
T1 sequence (P11511 1-503): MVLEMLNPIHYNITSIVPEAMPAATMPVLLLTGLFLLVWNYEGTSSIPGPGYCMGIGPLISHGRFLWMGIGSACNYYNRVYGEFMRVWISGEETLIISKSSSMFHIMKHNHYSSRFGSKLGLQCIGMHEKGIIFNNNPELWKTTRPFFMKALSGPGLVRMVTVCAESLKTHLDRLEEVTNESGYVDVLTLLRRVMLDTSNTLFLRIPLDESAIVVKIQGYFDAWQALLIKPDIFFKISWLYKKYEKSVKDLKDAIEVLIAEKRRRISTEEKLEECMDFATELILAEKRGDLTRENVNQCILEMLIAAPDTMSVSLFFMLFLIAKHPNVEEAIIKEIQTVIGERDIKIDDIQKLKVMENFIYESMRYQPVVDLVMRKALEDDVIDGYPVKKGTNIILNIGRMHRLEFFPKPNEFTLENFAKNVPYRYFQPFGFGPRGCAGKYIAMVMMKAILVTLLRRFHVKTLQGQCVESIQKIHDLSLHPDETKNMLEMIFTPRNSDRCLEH
Protocol: The activity was measured each minute for 60 min and the value obtained for each compound after 10 min was chosen to calculate the percentage of the aromatase inhibition.
The aromatase inhibitory activity was determined using a commercial fluorimetric assay kit (Aromatase-CYP19A Inhibitor Screening kit, BioVision, Milpitas, CA, USA), as reported elsewhere. The assay utilizes a fluorogenic aromatase substrate that is converted into a highly fluorescent metabolite detected in the visible range (Ex/Em 488/527 nm). […] During the incubation, the Aromatase Substrate/NADP+ mixture was prepared, and the reaction was started by adding 30 µL of this solution to each well (aside from the background control), reaching a final reaction volume of 100 µL/well. The fluorescence emission (527 nm) was measured immediately (within 1 min) by means of a fluorometer equipped with a 488 nm filter (GloMax®-Multi Detection System, Promega, Madison, WI, USA) and afterwards monitored for 60 min. […] The assay was performed in the same experimental conditions used for the initial screening of compounds. Dose–response curves were fitted with GraphPad Prism 5.0 (GraphPad Software, San Diego, CA, USA).

[3] = test system: normal human skin fibroblast (HFF-1); assay: Cell metabolic activity (MTT assay) on HFF-1; assay type: cell-based
Protocol: The compounds were then biologically characterized in terms of cytotoxicity occurrence (LDH released) on MCF7 cells. […] After 24 h of treatment, a dose-dependent decrease in cell metabolic activity can be registered for all the compounds with respect to DMSO alone. […] Similar results were obtained also after 72 h of treatment.
Human skin fibroblasts (HFF-1, CVCL_3285) and human breast cancer MCF7 (HTB-22™, CVCL_0031) were purchased from ATCC and maintained in Dulbecco’s modified Eagle’s medium (DMEM) high glucose (EuroClone, Milan, Italy) supplemented with 10% of fetal bovine serum (FBS) and 1% of penicillin/streptomycin (Gibco—Thermo Fisher Scientific, MD, USA).
Cell metabolic activity of HFF-1 and MCF7 cells was assessed by MTT (3-(4,5-Dimethylthiazol-2-yl)-2,5-Diphenyltetrazolium Bromide) test (Sigma Aldrich, Milan, Italy). […] After the established exposure times, cells were incubated with MTT (0.5 mg/mL) and the optical density was measured as reported elsewhere. Results were expressed as the percentage of cells in the presence of vehicle (DMSO) set as 100% and each experiment was performed in triplicate (n = 3). Concentration–response curves and IC50 were fitted and calculated with GraphPad Prism 5.0 (GraphPad Software, San Diego, CA, USA).

MCF7 cells [4] = assay: Cytotoxicity test (lactate dehydrogenase release); assay type: cell-based, human; settings: 24 h
Protocol: To assess whether the decrease in metabolic activity is a consequence of cytotoxic occurrence in the presence of compounds 1b, 1c, and 1j, lactate dehydrogenase (LDH) released from MCF7 was measured in response to loading concentrations of 0–250 µM after a 24 h exposure. […] It is, therefore, plausible to assume that all tested compounds exert their anti-proliferative effect on MCF7 cells through cytotoxic induction and 1c is the most promising compound, being active already at lower doses.
MCF7 cells were seeded and stimulated as previously described for the MTT test. After the exposure time, cell supernatants were collected, centrifuged at 450× g for 4 min, and stored on ice. In order to quantify the cytotoxicity of loading concentrations of compounds 1b, 1c, and 1j (0–250 µM), the CytoTox 96® Non-Radioactive Cytotoxicity Assay (Promega Corporation, Madison, WI, USA) was performed as previously reported. The results were normalized on MTT absorbances and expressed as fold increases on the LDH released by cultures in the presence of vehicle (DMSO) set as 1.

[5] = test system: MCF7 breast cancer cell line; assay: Cell metabolic activity / viability (MTT assay) on MCF7; assay type: cell-based, human; settings: for IC50: MTT, tested 0 to 500 µM;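 as to all read-outs here: MTT optical density read-out in human MCF7 cells, normalised to DMSO vehicle-treated cells as 100%, with IC50 derived from fitted concentration–response curves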
Protocol: Cell metabolic activity of HFF-1 and MCF7 cells was assessed by MTT (3-(4,5-Dimethylthiazol-2-yl)-2,5-Diphenyltetrazolium Bromide) test (Sigma Aldrich, Milan, Italy). […] After the established exposure times, cells were incubated with MTT (0.5 mg/mL) and the optical density was measured as reported elsewhere [63]. Results were expressed as the percentage of cells in the presence of vehicle (DMSO) set as 100% and each experiment was performed in triplicate (n = 3). Concentration–response curves and IC50 were fitted and calculated with GraphPad Prism 5.0 (GraphPad Software, San Diego, CA, USA).

[6] = Homo sapiens, MCF7, 24 h, 24 h, read-out: MCF7 Cells IC50 24 h
[7] = Homo sapiens, MCF7, 72 h, 72 h, read-out: MCF7 Cells IC50 72 h

Compound: O=S(=O)(Cc1ccccc1)Nc1ccc(/C=C/c2ccccc2)cc1 [2j, 1-Phenyl-N-{4-[(E)-2-phenylvinyl]phenyl}methanesulfonamide]
- Chemical stability, basic conditions [1]: highly degraded because of their precipitation in the basic solution
- Chemical stability, acidic conditions [1]: stable over the entire range of time

Compound: Cc1ccc(S(=O)(=O)Oc2ccc(/C=C/c3ccccc3)cc2)cc1[N+](=O)[O-] [1c, 4-[(E)-2-Phenylvinyl]phenyl 4-methyl-3-nitrobenzenesulfonate]
- Cell number by H&E staining (in words) (MCF7 cells [2]): cell number is dramatically decreased
- inhibition at 1 µM (human aromatase): 91%
- Potency in inhibiting aromatase relative to RSV (human aromatase; compared to RSV): twentyfold more potent than RSV
- IC50 (human aromatase): 3.17 µM
- HFF-1 viability (in words) ([3]; 0–250 µM, 24 and 72 h): significant reduction in viability only at the maximum concentration and after 72 h of treatment
- Selectivity index (SI) over normal fibroblasts ([3]; HFF-1 vs MCF7, after 24 h): 1.82
- LDH release, dose dependence (in words) (MCF7 cells [4]; MCF7, 0–250 µM): raises only at the highest concentration administered (250 µM)
- LDH released, fold vs vehicle (DMSO) set as 1 (MCF7 cells [4]; MCF7, 50 µM): three folds more
- LDH released, fold vs vehicle (DMSO) set as 1 (MCF7 cells [4]; MCF7, 250 µM): almost five folds more
- IC50 [5, 6]: 29.2 µM
- IC50 [5, 7]: 40 µM
- Viability (% of control) - 24 h ([5]; MCF7, 10 µM, 24 h): 85.23 ± 1.29 % of control
- Viability (% of control) - 72 h ([5]; MCF7, 10 µM, 72 h): 96.62 ± 6.99 % of control
- Viability (% of control) - 24 h ([5]; MCF7, 25 µM, 24 h): 73.08 ± 2.67 % of control
- Viability (% of control) - 72 h ([5]; MCF7, 25 µM, 72 h): 91.88 ± 5.31 % of control
- Viability (% of control) - 24 h ([5]; MCF7, 50 µM, 24 h): 37.39 ± 0.66 % of control
- Metabolically active cells ([5]; MCF7, 50 µM, 24 h, DMSO alone = 100%): around 60%
- Viability (% of control) - 72 h ([5]; MCF7, 50 µM, 72 h): 46.19 ± 1.67 % of control
- Viability (% of control) - 24 h ([5]; MCF7, 100 µM, 24 h): 36.17 ± 1.56 % of control
- Viability (% of control) - 72 h ([5]; MCF7, 100 µM, 72 h): 35.22 ± 2.21 % of control
- Viability (% of control) - 24 h ([5]; MCF7, 250 µM, 24 h): 38.64 ± 1.23 % of control
- Viability (% of control) - 72 h ([5]; MCF7, 250 µM, 72 h): 38.30 ± 4.07 % of control
- Viability (% of control) - 24 h ([5]; MCF7, 500 µM, 24 h): 34.30 ± 1.43 % of control
- Viability (% of control) - 72 h ([5]; MCF7, 500 µM, 72 h): 15.08 ± 0.67 % of control
- IC50 ([5]; 24 h, read-out: MCF7 Cells IC50 24 h): 29.2 ± 1.9 µM
- IC50 ([5]; 72 h, read-out: MCF7 Cells IC50 72 h): 39.9 ± 2.1 µM

Compound: O=S(=O)(Cc1ccccc1)Oc1ccc(/C=C/c2ccccc2)cc1 [1j, 4-[(E)-2-Phenylvinyl]phenyl phenylmethanesulfonate]
- Chemical stability, basic conditions [1]: highly degraded because of their precipitation in the basic solution
- Chemical stability, acidic conditions [1]: stable over the entire range of time
- inhibition at 1 µM (human aromatase): 100%
- IC50 (human aromatase): 2.21 µM
- IC50 [5, 6]: > 250 µM
- IC50 [5, 7]: > 250 µM
- Viability (% of control) - 24 h ([5]; MCF7, 10 µM, 24 h): 85.47 ± 6.41 % of control
- Viability (% of control) - 72 h ([5]; MCF7, 10 µM, 72 h): 96.53 ± 7.12 % of control
- Viability (% of control) - 24 h ([5]; MCF7, 25 µM, 24 h): 86.33 ± 14.64 % of control
- Viability (% of control) - 72 h ([5]; MCF7, 25 µM, 72 h): 95.30 ± 7.88 % of control
- Viability (% of control) - 24 h ([5]; MCF7, 50 µM, 24 h): 70.06 ± 3.80 % of control
- Viability (% of control) - 72 h ([5]; MCF7, 50 µM, 72 h): 87.57 ± 5.26 % of control
- Viability (% of control) - 24 h ([5]; MCF7, 100 µM, 24 h): 74.91 ± 9.24 % of control
- Viability (% of control) - 72 h ([5]; MCF7, 100 µM, 72 h): 72.67 ± 3.46 % of control
- Viability (% of control) - 24 h ([5]; MCF7, 250 µM, 24 h): 51.84 ± 3.08 % of control
- Viability (% of control) - 72 h ([5]; MCF7, 250 µM, 72 h): 69.54 ± 4.11 % of control
- Viability (% of control) - 24 h ([5]; MCF7, 500 µM, 24 h): 38.88 ± 5.23 % of control
- Viability (% of control) - 72 h ([5]; MCF7, 500 µM, 72 h): 46.31 ± 4.73 % of control
